From US20110034441A1, “INDAZOLES AS WNT/B-CATENIN SIGNALING PATHWAY INHIBITORS AND THERAPEUTIC USES THEREOF” (EPITHERIX, LLC, priority 2009, published 2011)
pIC50: −log10 of the molar value.

Tested on: Wnt
Assay: Wnt reporter screening assay: SP5 promoter (TCF/LEF) firefly luciferase in SW480 cells
Type: cell-based
Conditions: Homo sapiens; SW480 colon cancer cells with SP5 promoter luciferase reporter; 24 hours after compound addition; normalized to DMSO; read-out: Wnt inhibition, IC50
From the text: Another screening assay for Wnt activity is described as follows. Reporter cell lines can be generated by stably transducing cells of cancer cell lines (e.g., colon cancer) with a lentiviral construct that include a wnt-responsive promoter driving expression of the firefly luciferase gene.
Lentiviral constructs can be made in which the SP5 promoter, a promoter having eight TCF/LEF binding sites derived from the SP5 promoter, is linked upstream of the firefly luciferase gene. The lentiviral constructs can also include a hygromycin resistance gene as a selectable marker. The SP5 promoter construct can be used to transduce SW480 cells, a colon cancer cell line having a mutated APC gene that generates a truncated APC protein, leading to de-regulated accumulation of β-catenin.
Cultured SW480 cells bearing a reporter construct can be distributed at approximately 10,000 cells per well into 384 well multiwell plates. Compounds from a small molecule compound library can then be added to the wells in half-log dilutions using a three micromolar top concentration. A series of control wells for each cell type receive only buffer and compound solvent. Twenty-four hours after the addition of compound, reporter activity for luciferases can be assayed, for example, by addition of the BrightGlo luminescence reagent (Promega) and the Victor3 plate reader (Perkin Elmer). Readings can be normalized to DMSO only treated cells, and normalized activities can then be used in the IC50 calculations.

Question: `O=C(c1ccc2[nH]nc(-c3nc4ccccc4[nH]3)c2c1)N1CCOCC1` [Compound 23, (3-(1H-benzo[d]imidazol-2-yl)-1H-indazol-5-yl)(morpholino) methanone] was tested. Which pIC50 did it give?
Answer: The pIC50 was less than 5.00.
